From patent publication US20200385423A1, “USE OF EXCITATORY NERVE INJURY-RELATED POLYPEPTIDE IN PREVENTING, ALLEVIATING OR TREATING PAIN” (Biocells (Beijing) Biotech Co., Ltd., priority 2016, published 2020)

Tests used:
Assay type in all cases: in vivo, rat
[1] = test system: rats; experiment: Acute toxicity tests on rats; conditions: dose of 1000 mg/kg body weight
Method: Acute toxicity tests were performed on rats.

[2] = test system: SD rats; experiment: Needling experiment (vonFrey probe) in rats with sciatic nerve ligation; conditions: for paw lifting threshold due to needling at surgical side after administration: P5 0.2 μg/kg caudal vein, ibuprofen 50 mg/kg intragastric
Method: Eighteen male SD rats of 240-260 g (purchased from Huafukangcheng Co., Ltd.) were selected as experimental rats, and divided into three groups with six rats in each group for a needling experiment, including a group administered with the polypeptide at a dose of 0.2 μg/kg, a normal saline group and a positive control drug group (ibuprofen, 50 mg/kg).
(§1) 4.0 chromic catguts (purchased from Shandong Boda Medical Products Co., Ltd.) were immersed into normal saline (purchased from Shijiazhuang Four Medicine Co., Ltd., National Pharmaceutical Standard H13023200) for 30 minutes for softening. Rats were shaved in the middle of their thighs, and wiped with iodine. Wound at 1 cm below the epidermis was created with a scissor, and then a J31060 hemostat was used to tear the biceps femoris. The sciatic nerve was thus exposed at the middle of the thighs. The end proximal to the leg was the trigeminal sciatic nerve. The sciatic nerve at the middle of the thighs was gently ligated four times with the 4.0 chromic catguts. The force was deemed appropriate if muscles near the ligation site slightly trembled. The adjacent ligation sites were 1 mm apart. Then muscles and epidermal tissues were sutured separately.
(§2) Before the experiment, the rats with successful surgery in the test group were injected via caudal vein with Peptide P5 in normal saline (dose at 0.2 μg/kg). Rats in normal saline group were intraperitoneally injected with 0.3 mL of normal saline. The positive drug group was administered via intragastric infusion with ibuprofen suspension (purchased from Shanghai Qiangsheng Pharmaceutical Co., Ltd., National Pharmaceutical Standard H19991011) at a dose of 50 mg/kg.
Fourteen days after surgery, the rats in the administration groups were tested before administration and 10 min\70 min\130 min after administration. The experimental rats were placed in a plexiglass observation chamber to acclimate the environment for 5 minutes until the rats no longer looked around. The ZS-CTY foot needling system (purchased from Beijing Zhongshi Di Chuang Technology Development Co., Ltd.) was connected to a win7 32-bit computer. The test software was opened to calibrate the zero point of the instrument, and then calibrate again after a 10 g weight was added. The vonFrey probe was used to slowly and gently stimulate the middle parts of the testing hind paws of the rats to observe the paw withdrawal reaction of the rats. […] The paw withdrawal reaction of rats due to physical activity was excluded. The reaction was recorded twice at each time point, and averaged to obtain paw lifting force thresholds (in g) due to needling. The foot needling system (purchased from Beijing Zhongshi Di Chuang Technology Development Co., Ltd.; lot. number: 20160101060001) was adjusted to zero with a 10 g weight, there was still a fundamental read fluctuation when the bottom of the rats' paws was needled. The fluctuation was generally between +3 and +5 g, which should be subtracted from the final value. If there was still a baseline, it should be removed.
EXCEL's T-test function (two-tailed variance) was used to analyze the statistical difference in paw lifting force thresholds due to needling between the untreated side and surgical side in the experimental rats to evaluate whether or not the modeling was successful. The difference among the needling pain force thresholds before administration and at each time point after administration was then analyzed to evaluate the pharmaceutical efficacy and effect duration.

[3] = test system: SD rats; experiment: Hot plate experiment in rats with sciatic nerve ligation; conditions: for paw lifting time threshold due to heating pain at surgical side after administration: P5 0.2 μg/kg caudal vein, ibuprofen 50 mg/kg intragastric
Method: Eighteen male SD rats of 240-260 g (purchased from Huafukangcheng Co., Ltd.) were selected as experimental rats, and divided into three groups with six rats in each group for a hot plate experiment, including a group administered with Polypeptide P5 at a dose of 0.2 μg/kg, a group administered with normal saline and a group administered with positive control drug (ibuprofen, 50 mg/kg). Screening was conducted before the experiment.
as §1, §2
Hot plate experiments were performed on rats 7 days after surgery. Rats were feed properly, and the indoor environment was maintained at about 25° C. The temperature of the YLS-6B intelligent hot plate instrument (purchased from Beijing Zhongshi Di Chuang Technology Development Co., Ltd.) was set at about 55° C. The rats were placed on the hot plate instrument in a closed, detachable, and transparent plexiglass jar, and the time of occurrence of the hind paw licking or jump reaction was recorded. If there no reaction was observed from the rats with administration 20 seconds after placement in the jar, the SD rats were taken out to avoid scalding the paws due to too long heating. The pain threshold of such rats was calculated as 20 seconds. Each rat was tested twice in succession with the interval of at least 30 seconds. The average of results was calculated.
At the end of the experiment, the heating pain response time (i.e., pain threshold in second) of rats in the normal saline control group and individual drug-administered groups before administration and 10 min, 70 min, and 130 min after administration was recorded.
EXCEL's T-test function (two-tailed variance) was used to analyze the statistical difference between the paw lifting time thresholds due to heating pain of pre-modeling and post-modeling experimental rats to evaluate whether or not the modeling was successful. The difference among the heating pain time thresholds before administration and at each time point after administration was then analyzed to evaluate the pharmaceutical efficacy.

[4] = P5 0.2 μg/kg, ibuprofen 50 mg/kg

Row | SMILES | acute toxicity [1] | paw lifting threshold due to needling at surgical side after administration ([2]; 10 min after administration) [g] | paw lifting threshold due to needling at surgical side after administration ([2]; 70 min after administration) [g] | paw lifting threshold due to needling at surgical side after administration ([2]; 130 min after administration) [g] | duration of therapeutic (analgesic) effect, needling experiment [2, 4] [min] | paw lifting threshold due to needling at surgical side before administration ([2]; baseline 14 days after surgery, before administration) [g] | paw lifting threshold due to needling, healthy side (control) ([2]; healthy side of the group, control value) [g] | paw lifting time threshold due to heating pain at surgical side after administration ([3]; 10 min after administration) [s] | paw lifting time threshold due to heating pain at surgical side after administration ([3]; 70 min after administration) [s] | paw lifting time threshold due to heating pain at surgical side after administration ([3]; 130 min after administration) [s] | duration of therapeutic (analgesic) effect, hot plate experiment [3, 4] [min] | paw lifting time threshold due to heating pain, surgical side before administration ([3]; baseline 7 days after surgery, before administration, hot plate about 55° C.) [s] | paw lifting time threshold due to heating pain, pre-modeling (control) ([3]; baseline of the group before modeling, hot plate about 55° C.) [s]
1 | CC[C@H](C)[C@H](NC(=O)[C@H](CCC(=O)O)NC(=O)[C@@H](NC(=O)[C@H](CC(=O)O)NC(=O)[C@H](CC(C)C)NC(=O)[C@H](CC(C)C)NC(=O)[C@H](CCCCN)NC(=O)[C@H](CCC(=O)O)NC(=O)[C@H](Cc1ccc(O)cc1)NC(=O)[C@H](CCCNC(=N)N)NC(=O)[C@H](CCCNC(=N)N)NC(=O)[C@H](CCCNC(=N)N)NC(=O)[C@H](CCC(N)=O)NC(=O)[C@H](CCCNC(=N)N)NC(=O)[C@H](CCCNC(=N)N)NC(=O)[C@H](CCCCN)NC(=O)[C@H](CCCCN)NC(=O)[C@H](CCCNC(=N)N)NC(=O)CNC(=O)[C@@H](N)Cc1ccc(O)cc1)[C@@H](C)O)C(=O)O [Polypeptide P5] | no lethal effect and other obvious toxic side effects | – | – | – | – | – | – | – | – | – | – | – | –
2 | CC(C)Cc1ccc(C(C)C(=O)O)cc1 (stereo not shown) [ibuprofen] | – | 46.24 | 36.21 | 38.88 | < 130 | 28.72 | 73.65 | 5.74 | 4.64 | 4.19 | < 130 | 3.95 | 12.5
